Our source for the IC50, CC50 and inhibition values is paper PMC6412891, “Synthesis and Biological Evaluation of Novel Thiazolyl-Coumarin Derivatives as Potent Histone Deacetylase Inhibitors with Antifibrotic Activity” (Molecules, 2019).

The test system of data set [1] is HDACs HeLa cells nuclear extract. Description: HDAC inhibitory activity, fluorometric kit, HeLa cell nuclear extract. The following applies: HeLa cell nuclear extract as HDAC source. The data set is classed as biochemical, human.
The target in the next data set is T1, HDAC1 human recombinant (Homo sapiens, UniProt Q13547).
T1 construct: purchased Enzo Life Science BML-AK511
Briefly: HDAC1 inhibitory activity, fluorometric kit. The data set is classed as biochemical. The note with it: Class I.

A further data set deals with T2, HDAC6 human recombinant (Homo sapiens, UniProt Q9UBN7).
T2 construct: purchased Enzo Life Science BML-AK516
T2 sequence (Q9UBN7 1-1215): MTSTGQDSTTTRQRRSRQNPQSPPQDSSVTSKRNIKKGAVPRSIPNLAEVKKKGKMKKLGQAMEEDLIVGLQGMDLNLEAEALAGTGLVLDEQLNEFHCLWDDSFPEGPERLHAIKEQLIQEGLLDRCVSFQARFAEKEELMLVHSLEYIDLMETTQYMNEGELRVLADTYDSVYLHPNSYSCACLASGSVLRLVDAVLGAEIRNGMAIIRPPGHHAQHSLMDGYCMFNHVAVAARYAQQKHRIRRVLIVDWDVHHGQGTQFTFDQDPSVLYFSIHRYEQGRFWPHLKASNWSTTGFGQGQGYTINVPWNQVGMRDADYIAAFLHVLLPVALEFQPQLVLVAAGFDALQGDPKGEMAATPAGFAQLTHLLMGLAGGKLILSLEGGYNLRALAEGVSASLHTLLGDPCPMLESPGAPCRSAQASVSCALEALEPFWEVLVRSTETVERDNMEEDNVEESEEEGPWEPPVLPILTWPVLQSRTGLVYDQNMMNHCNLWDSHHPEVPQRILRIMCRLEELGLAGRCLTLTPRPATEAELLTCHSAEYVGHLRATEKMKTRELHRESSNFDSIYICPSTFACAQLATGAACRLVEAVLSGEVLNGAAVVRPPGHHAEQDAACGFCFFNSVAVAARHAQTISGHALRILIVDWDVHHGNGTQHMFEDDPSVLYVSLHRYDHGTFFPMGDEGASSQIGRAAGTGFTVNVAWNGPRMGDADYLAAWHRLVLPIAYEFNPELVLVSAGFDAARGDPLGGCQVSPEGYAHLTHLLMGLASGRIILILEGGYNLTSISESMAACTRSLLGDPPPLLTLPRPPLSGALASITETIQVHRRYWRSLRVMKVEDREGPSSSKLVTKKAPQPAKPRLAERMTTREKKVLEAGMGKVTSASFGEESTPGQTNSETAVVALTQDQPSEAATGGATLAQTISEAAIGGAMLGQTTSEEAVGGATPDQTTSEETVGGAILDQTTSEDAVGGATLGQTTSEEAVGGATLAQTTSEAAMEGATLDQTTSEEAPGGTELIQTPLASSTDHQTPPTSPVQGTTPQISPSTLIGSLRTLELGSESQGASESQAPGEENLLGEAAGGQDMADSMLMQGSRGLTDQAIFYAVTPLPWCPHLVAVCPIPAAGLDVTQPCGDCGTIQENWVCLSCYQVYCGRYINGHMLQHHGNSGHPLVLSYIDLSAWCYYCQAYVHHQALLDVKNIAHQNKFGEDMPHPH
Description: HDAC6 inhibitory activity, fluorometric kit. The data set is classed as biochemical. The note with it: Class II.

The nature of data set [2]: Cytotoxicity assay (Alamar Blue) in cardiac fibroblasts. The data set is classed as cell-based, rat. The following applies: Sprague-Dawley, rat, primary neonatal rat cardiac fibroblasts (CFs), CFs treated for 48 h. On the procedure: CFs were treated for 48 h with all the new CTz derivatives in a broad concentration range (100 μM^−1 mM), and their cytotoxicity was then evaluated. In Table 3 cytotoxic concentration 50 (CC50) values for each of the synthesized compounds are shown. […] When comparing the different ZBG the series 5 is the least cytotoxic for CFs, while series 8 was the most cytotoxic.
(§1) Sprague Dawley rats were obtained from the Animal Breeding Facility of the School of Chemical and Pharmaceutical Sciences at the University of Chile. All studies followed the Guide for the Care and Use of Laboratory Animals published by the US National Institutes of Health (NIH Publication 8th, 2011), and experimental protocols were approved by the University of Chile Institutional Ethics Review Committee. CF were isolated from of 2 or 3–day–old Sprague-Dawley rats and cultured as described previously. Briefly, the neonatal rats were decapitated and their hearts were extracted under aseptic environment. Atria were removed and ventricles were cut into small pieces (~1–2 mm) for posterior colagenase II digestion. The digestion yield was separated by 10 min centrifugation at 89×g. The pellet was resuspended in 10 mL of Dulbecco’s Modified Eagle’s Medium/Nutrient F-12 (DMEM-F12) supplemented with 10% FBS and antibiotics (100 μg/mL streptomycin and 100 units/mL penicillin) and cultured in a humid atmosphere of 5% CO2 and 95% O2 at 37°C until confluence (5 days). The purity of the CFs population was assessed through the expression of several markers. CFs had positive staining against vimentin (Santa Cruz Biotechnology), while being negative against sarcomeric actin and desmin (Sigma-Aldrich). Experiments were performed on cells at passage 1. Cells were cultured in 35-mm well plates and serum starved for 24 h prior to stimulation.
(§2) To evaluate cytotoxicity, CFs were seeded in 12 microwell plates at a ratio of 2 × 10^4 cell/cm^2, cultured in DMEM–F12 medium + 10% FBS, which was subsequently replaced by DMEM–F12. After 24 h of serum starvation derivatives were applied at proper times and concentrations in accordance to experimental procedures. Cell viability assays were carried out using Alamar Blue®, a nontoxic, cell permeable non fluorescent compound that is blue in color. Viable cells reduce resazurin to resorufin, which produces very bright red fluorescence which is used as a quantitative cell viability measure. 10 μL of 0.2 mg/mL Alamar Blue® was added into each well followed by incubation for 24 h. The fluorescence of Alamar Blue® was read using microplate reader at 570 excitation and emission to 595 nm. Cell survival was expressed as percentage over the untreated cells. To evaluate CFs proliferation assay, cells were seeded as mentioned before, and after serum starvation, they were stimulated by 10% fetal bovine serum (FBS), in presence/absence of CTz derivatives for 24 h, at concentrations according to experiment. Cell proliferation was quantified by Alamar Blue®, according to protocol mentioned before. Cell proliferation was expressed as percentage over the control FBS treated cells.
On the technique in general: The colour change of resazurin is a common sign of viable cells or microbes.

For data set [3], the system named is neonatal rat cardiac fibroblasts (CFs). Description: FBS-induced cardiac fibroblast proliferation assay (Alamar Blue). Format: cell-based. The following applies: 10% FBS-induced CF proliferation, 48 h, read-out: Inhibition percentage of cell proliferation. On the procedure:
CFs were treated for 48 h with 10% fetal bovine serum (FBS), to induce CFs proliferation in presence/absence of each new CTz derivatives in a concentration range of 1–10 μM. In Table 4, the inhibition percentage of cell proliferation for each concentration of the synthesized compounds are shown. All derivatives inhibited CFs proliferation induce by serum.
as §1, with “Cells were cultured in 35-mm well plates and serum starved for 24 h prior to stimulation.” left out
as §2, with “10 μL of 0.2 mg/mL Alamar Blue® was added into each well followed by incubation for 24 h.” left out, “To evaluate CFs proliferation assay, cells were seeded as mentioned before, and after serum starvation, they were stimulated by 10% fetal bovine serum (FBS), in presence/absence of CTz derivatives for 24 h, at concentrations according to experiment.” left out

T1 sequence (Q13547 whole entry): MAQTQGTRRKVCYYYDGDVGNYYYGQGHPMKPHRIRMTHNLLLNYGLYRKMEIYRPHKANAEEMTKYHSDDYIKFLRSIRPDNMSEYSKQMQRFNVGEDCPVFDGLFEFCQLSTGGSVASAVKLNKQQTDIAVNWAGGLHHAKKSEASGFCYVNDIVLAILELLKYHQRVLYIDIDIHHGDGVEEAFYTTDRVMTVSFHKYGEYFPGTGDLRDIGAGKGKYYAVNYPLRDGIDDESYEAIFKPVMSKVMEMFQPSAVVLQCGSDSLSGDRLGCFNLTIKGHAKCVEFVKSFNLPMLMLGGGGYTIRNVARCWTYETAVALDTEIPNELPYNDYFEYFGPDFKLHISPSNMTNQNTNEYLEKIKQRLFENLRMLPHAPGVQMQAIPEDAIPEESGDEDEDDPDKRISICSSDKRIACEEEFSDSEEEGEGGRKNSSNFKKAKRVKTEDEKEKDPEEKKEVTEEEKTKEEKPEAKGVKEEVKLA

As a reminder, the IC50 is the concentration needed to halve the response being measured. By CC50 is commonly meant the concentration that lowers cell viability or growth by half. The low end stands for harm at low concentration, the high end for better tolerance by the cells. As for `O=C(Nc1nc(-c2cc3cc(Br)ccc3oc2=O)cs1)c1ccc(O)c(O)c1` [Compound 6b], the half-maximal inhibitory concentration (IC50) in data set [1] turned out to be 0.509 ± 0.0233 µM. Further, the IC50 on HDAC1 human recombinant was 0.613 ± 0.0328 µM. In addition, at HDAC6 human recombinant, the IC50 amounted to 0.449 ± 0.0207 µM. This compound registered a CC50 at 48 h in data set [2] of 102 ± 10.3 µM. In data set [3], the inhibition at 1 µM came to 15.8 ± 3.6%, the inhibition at 5 µM turned out to be 40 ± 1.8% and the inhibition at 10 µM stood at 64.1 ± 1.7%.

As to `COc1ccc2oc(=O)c(-c3csc(NC(=O)c4ccc(O)c(O)c4)n3)cc2c1` [Compound 6c], the figures for the IC50 (in data set [1]; at HDAC1 human recombinant; at HDAC6 human recombinant) were 0.477 ± 0.0275 µM, 0.504 ± 0.0314 µM and 0.581 ± 0.0275 µM, respectively. The CC50 at 48 h in data set [2] came out at 124 ± 12.8 µM. Also, the inhibition at 1 µM in data set [3] stood at 10.9 ± 3.6%. Moreover, the inhibition at 5 µM in data set [3] came to 42.2 ± 1.8%. Also, the inhibition at 10 µM in data set [3] came out at 64.9 ± 2.3%.

Turning to `O=C(O)CCCCC(=O)Nc1nc(-c2cc3cc(Br)ccc3oc2=O)cs1` [Compound 7b], half-maximal inhibition in data set [1] (IC50) was put at 5.4 ± 0.4 µM. The IC50 on HDAC1 human recombinant came out at 4.67 ± 0.362 µM. Also, the half-maximal inhibitory concentration (IC50) on HDAC6 human recombinant worked out at 6.34 ± 0.466 µM. The midpoint of cytotoxicity in data set [2], the CC50 at 48 h, lay at 80 ± 23.6 µM. In data set [3], the inhibition at 1 µM was 2.4 ± 1.1%, the inhibition at 5 µM came out at 36.1 ± 5.4% and the inhibition at 10 µM was 48 ± 4.8%.

With `COc1ccc2oc(=O)c(-c3csc(NC(=O)CCCCC(=O)O)n3)cc2c1` [Compound 7c], the values for the IC50 (in data set [1]; on HDAC1 human recombinant; at HDAC6 human recombinant) were 4.7 ± 0.31 µM, 3.38 ± 0.302 µM and 2.43 ± 0.157 µM, respectively. The compound also came in with a cytotoxic concentration (CC50) at 48 h in data set [2] of 99.5 ± 6.3 µM. Moreover, the inhibition at 1 µM in data set [3] came to 6 ± 0.4%. For the same compound, the inhibition at 5 µM in data set [3] was found to be 33 ± 4.1%. The inhibition at 10 µM in data set [3] came to 48.8 ± 5.2%.
